Reference: patent US10131652B2, “Pyrimidinyloxy benzene derivatives as herbicides” (E. I. DU PONT DE NEMOURS AND COMPANY, priority 2014, dated 2018)
Like-named read-outs stand apart in the source and are kept apart here.

Tests used:
Assay type in all cases: in vivo
[1] = system: small-flower umbrella sedge (Cyperus difformis); test: Test C flooded paddy test plant response; conditions: Cyperus difformis; Flood, 250 g ai/ha; scale of 0 to 100 where 0 is no effect and 100 is complete control; 13 to 15 days; read-out: Sedge, Umbrella plant response rating
How it was run: (§1)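 Plants grown to 2-leaf stage, flooded 3 cm above soil; compounds applied directly into paddy water, depth kept throughout. Visual rating versus controls after 13 to 15 days in greenhouse, 0 (no effect) to 100 (complete control).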

rice (Oryza sativa) = test: Test C flooded paddy test plant response; conditions: Oryza sativa; Flood, 250 g ai/ha; scale of 0 to 100 where 0 is no effect and 100 is complete control; 13 to 15 days; read-out: Rice plant response rating
How it was run: as §1

[2] = system: barnyardgrass (Echinochloa crus-galli); test: Test C flooded paddy test plant response; conditions: Echinochloa crus-galli; Flood, 250 g ai/ha; scale of 0 to 100 where 0 is no effect and 100 is complete control; 13 to 15 days; read-out: Barnyardgrass plant response rating
How it was run: as §1

[3] = system: ducksalad (Heteranthera limosa); test: Test C flooded paddy test plant response; conditions: Heteranthera limosa; Flood, 250 g ai/ha; scale of 0 to 100 where 0 is no effect and 100 is complete control; 13 to 15 days; read-out: Ducksalad plant response rating
How it was run: as §1

[4] = system: velvetleaf (Abutilon theophrasti); test: Test D pre-/postemergence plant response; conditions: Abutilon theophrasti, pre-emergence, Preemergence
How it was run: (§2)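 Each compound, in non-phytotoxic solvent with surfactant, was sprayed onto soil right after sowing or onto young plants 2 to 18 cm tall. After 13 to 15 days under greenhouse conditions, effects were judged visually against controls on a 0 (no effect) to 100 (complete control) scale.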

[5] = system: winter wheat (Triticum aestivum); test: Test D pre-/postemergence plant response; conditions: Triticum aestivum, pre-emergence, Preemergence
How it was run: as §2

soybean (Glycine max) = test: Test D pre-/postemergence plant response; conditions: Glycine max, pre-emergence, Preemergence
How it was run: as §2

[6] = system: morningglory (Ipomoea coccinea); test: Test D pre-/postemergence plant response; conditions: Ipomoea, pre-emergence, Preemergence
How it was run: as §2

[7] = system: lambsquarters (Chenopodium album); test: Test D pre-/postemergence plant response; conditions: Chenopodium album, pre-emergence, Preemergence
How it was run: as §2

[8] = system: johnsongrass (Sorghum halepense); test: Test D pre-/postemergence plant response; conditions: Sorghum halepense, pre-emergence, Preemergence
How it was run: as §2

[9] = system: waterhemp (common waterhemp, Amaranthus rudis); test: Test D pre-/postemergence plant response; conditions: Amaranthus tuberculatus, pre-emergence, Preemergence
How it was run: as §2

[10] = system: wheat (Triticum aestivum); test: Test B pre-/postemergence plant response; conditions: Triticum aestivum, post-emergence, 240 h, read-out: Plant response rating, Wheat
How it was run: (§3)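 Visual injury scores on a 0–100 scale (100 = complete control) relative to untreated plants, taken about 10 days post-treatment in greenhouse. Treatments were a directed preemergence soil spray and a postemergence spray at one- to two-leaf stage, using surfactant-containing solvent formulation.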

[11] = system: pigweed (Amaranthus retroflexus); test: Test B pre-/postemergence plant response; conditions: for pest or weed control at 500 g/ha: 500 g ai/ha
How it was run: as §3

[12] = system: barnyardgrass (Echinochloa crus-galli); test: Test B pre-/postemergence plant response; conditions: for pest or weed control at 500 g/ha: 500 g ai/ha
How it was run: as §3

[13] = system: giant foxtail (Setaria faberii); test: Test B pre-/postemergence plant response; conditions: for pest or weed control at 500 g/ha: 500 g ai/ha
How it was run: as §3

corn (Zea mays) = test: Test B pre-/postemergence plant response; conditions: Zea mays, post-emergence, 240 h
How it was run: as §3

[14] = 125 g ai/ha, postemergence, 0 to 100 scale, 0 no effect, 100 complete control
[15] = Postemergence, 500 g ai/ha, 0 to 100 scale (0 no effect, 100 complete control)
[16] = Preemergence, 125 g ai/ha, 0 to 100 scale (0 no effect, 100 complete control)

## N#Cc1cccc(Oc2ncc(Cl)cn2)c1-c1cc(C(F)(F)F)ccn1 [Compound 158, 5-chloro-2-[3-cyano-2-[4-(trifluoromethyl)-2-pyridinyl]phenoxy]pyrimidine]
[1]
  pest or weed control at 250 g/ha: 0%
Rice (Oryza sativa)
  plant injury at 250 g/ha: 0%
[2]
  pest or weed control at 250 g/ha: 0%
[3]
  pest or weed control at 250 g/ha: 50%
[4]; 125 g ai/ha, read-out: Plant response rating (scale 0 to 100), Velvetleaf
  pest or weed control at 125 g/ha: 70%
[4]; 16 g ai/ha, scale 0 to 100 (0 no effect, 100 complete control), read-out: Plant response rating, Velvetleaf
  pest or weed control at 16 g/ha: 35%
[4]; 31 g ai/ha, scale 0 to 100 (0 no effect, 100 complete control), read-out: Plant response rating, Velvetleaf
  pest or weed control at 31 g/ha: 25%
[4]; 62 g ai/ha, scale 0 to 100 (0 no effect, 100 complete control), read-out: Plant response rating, Velvetleaf
  pest or weed control at 62 g/ha: 40%
[5]; 125 g ai/ha, read-out: Plant response rating (scale 0 to 100), Wheat
  plant injury at 125 g/ha: 0%
[5]; 16 g ai/ha, scale 0 to 100 (0 no effect, 100 complete control), read-out: Plant response rating, Wheat
  plant injury at 16 g/ha: 0%
[5]; 31 g ai/ha, scale 0 to 100 (0 no effect, 100 complete control), read-out: Plant response rating, Wheat
  plant injury at 31 g/ha: 0%
[5]; 62 g ai/ha, scale 0 to 100 (0 no effect, 100 complete control), read-out: Plant response rating, Wheat
  plant injury at 62 g/ha: 0%
Soybean (Glycine max); 125 g ai/ha, read-out: Plant response rating (scale 0 to 100), Soybean
  plant injury at 125 g/ha: 95%
Soybean (Glycine max); 16 g ai/ha, scale 0 to 100 (0 no effect, 100 complete control), read-out: Plant response rating, Soybean
  plant injury at 16 g/ha: 0%
Soybean (Glycine max); 31 g ai/ha, scale 0 to 100 (0 no effect, 100 complete control), read-out: Plant response rating, Soybean
  plant injury at 31 g/ha: 25%
Soybean (Glycine max); 62 g ai/ha, scale 0 to 100 (0 no effect, 100 complete control), read-out: Plant response rating, Soybean
  plant injury at 62 g/ha: 45%
[6]; 125 g ai/ha, read-out: Plant response rating (scale 0 to 100), Morningglory
  pest or weed control at 125 g/ha: 70%
[6]; 16 g ai/ha, scale 0 to 100 (0 no effect, 100 complete control), read-out: Plant response rating, Morningglory
  pest or weed control at 16 g/ha: 5%
[6]; 31 g ai/ha, scale 0 to 100 (0 no effect, 100 complete control), read-out: Plant response rating, Morningglory
  pest or weed control at 31 g/ha: 15%
[6]; 62 g ai/ha, scale 0 to 100 (0 no effect, 100 complete control), read-out: Plant response rating, Morningglory
  pest or weed control at 62 g/ha: 15%
[7]; 125 g ai/ha, read-out: Plant response rating (scale 0 to 100), Lambsquarters
  pest or weed control at 125 g/ha: 80%
[7]; 16 g ai/ha, scale 0 to 100 (0 no effect, 100 complete control), read-out: Plant response rating, Lambsquarters
  pest or weed control at 16 g/ha: 75%
[7]; 31 g ai/ha, scale 0 to 100 (0 no effect, 100 complete control), read-out: Plant response rating, Lambsquarters
  pest or weed control at 31 g/ha: 100%
[7]; 62 g ai/ha, scale 0 to 100 (0 no effect, 100 complete control), read-out: Plant response rating, Lambsquarters
  pest or weed control at 62 g/ha: 100%
[8]; 125 g ai/ha, read-out: Plant response rating (scale 0 to 100), Johnsongrass
  pest or weed control at 125 g/ha: 40%
[8]; 16 g ai/ha, scale 0 to 100 (0 no effect, 100 complete control), read-out: Plant response rating, Johnsongrass
  pest or weed control at 16 g/ha: 0%
[8]; 31 g ai/ha, scale 0 to 100 (0 no effect, 100 complete control), read-out: Plant response rating, Johnsongrass
  pest or weed control at 31 g/ha: 0%
[8]; 62 g ai/ha, scale 0 to 100 (0 no effect, 100 complete control), read-out: Plant response rating, Johnsongrass
  pest or weed control at 62 g/ha: 10%
[9]; 125 g ai/ha, read-out: Plant response rating (scale 0 to 100), Waterhemp
  pest or weed control at 125 g/ha: 100%
[9]; 16 g ai/ha, scale 0 to 100 (0 no effect, 100 complete control), read-out: Plant response rating, Waterhemp
  pest or weed control at 16 g/ha: 100%
[9]; 31 g ai/ha, scale 0 to 100 (0 no effect, 100 complete control), read-out: Plant response rating, Waterhemp
  pest or weed control at 31 g/ha: 100%
[9]; 62 g ai/ha, scale 0 to 100 (0 no effect, 100 complete control), read-out: Plant response rating, Waterhemp
  pest or weed control at 62 g/ha: 100%
[10]; [14]
  plant injury at 125 g/ha: 20%
[10]; [15]
  plant injury at 500 g/ha: 70%
[11]; Amaranthus retroflexus, post-emergence, 240 h, 125 g ai/ha, postemergence, 0 to 100 scale, 0 no effect, 100 complete control, read-out: Plant response rating, Pigweed
  pest or weed control at 125 g/ha: 80%
[11]; Amaranthus retroflexus, post-emergence, 240 h, Postemergence, 0 to 100 scale (0 no effect, 100 complete control), read-out: Plant response rating, Pigweed
  pest or weed control at 500 g/ha: 100%
[11]; Amaranthus retroflexus, pre-emergence, 240 h, Preemergence, 0 to 100 scale where 0 is no effect and 100 is complete control, read-out: Plant response rating, Pigweed
  pest or weed control at 500 g/ha: 100%
[11]; [16]
  Pigweed plant response rating: 90
[12]; Echinochloa crus-galli, post-emergence, 240 h, 125 g ai/ha, postemergence, 0 to 100 scale, 0 no effect, 100 complete control, read-out: Plant response rating, Barnyardgrass
  pest or weed control at 125 g/ha: 60%
[12]; Echinochloa crus-galli, post-emergence, 240 h, Postemergence, 0 to 100 scale (0 no effect, 100 complete control), read-out: Plant response rating, Barnyardgrass
  pest or weed control at 500 g/ha: 100%
[12]; Echinochloa crus-galli, pre-emergence, 240 h, Preemergence, 0 to 100 scale where 0 is no effect and 100 is complete control, read-out: Plant response rating, Barnyardgrass
  pest or weed control at 500 g/ha: 100%
[12]; [16]
  Barnyardgrass plant response rating: 90
[13]; [16]
  Foxtail, Giant plant response rating: 90
[13]; Setaria faberi, post-emergence, 240 h, 125 g ai/ha, postemergence, 0 to 100 scale, 0 no effect, 100 complete control, read-out: Plant response rating, Foxtail, Giant
  pest or weed control at 125 g/ha: 50%
[13]; Setaria faberi, post-emergence, 240 h, Postemergence, 0 to 100 scale (0 no effect, 100 complete control), read-out: Plant response rating, Foxtail, Giant
  pest or weed control at 500 g/ha: 100%
[13]; Setaria faberi, pre-emergence, 240 h, Preemergence, 0 to 100 scale where 0 is no effect and 100 is complete control, read-out: Plant response rating, Foxtail, Giant
  pest or weed control at 500 g/ha: 100%
Corn (Zea mays); [14]
  Corn plant response rating (crop injury, 0 = no effect, 100 = complete kill) at 125 g/ha: 30%
Corn (Zea mays); [15]
  Corn plant response rating (crop injury, 0 = no effect, 100 = complete kill) at 500 g/ha: 90%
